# Reference: the supplement of paper PMC10307832
# Assays:
# Experiment in all cases: relative viability (nuclei count vs DMSO), 5 days (fraction); higher = more cells survive
# Doxorubicin + Lapatinib = compound: COc1cccc2c1C(=O)c1c(O)c3c(c(O)c1C2=O)C[C@@](O)(C(=O)CO)C[C@@H]3O[C@H]1C[C@H](N)[C@H](O)[C@H](C)O1 [Doxorubicin] + CS(=O)(=O)CCNCc1ccc(-c2ccc3ncnc(Nc4ccc(OCc5cccc(F)c5)c(Cl)c4)c3c2)o1 [Lapatinib] (partner 2 µM)
# Method in brief: (§1)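 Lung cancer cell lines in 1536-well plates got either a single drug or a fixed anchor-drug dose together with five library-drug doses (not always all listed) in √10 steps, by pin tool, on the day after seeding. Nuclei were counted after 5 days, and relative viability is the treated-to-vehicle ratio of nuclei counts. Values are medians of duplicate plates.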
# BAY61-3606 + Phenformin = compound: COC1=C(C=C(C=C1)C2=CC3=NC=CN3C(=N2)NC4=C(C=CC=N4)C(=O)N)OC [BAY61-3606] + N=C(N)NC(=N)NCCc1ccccc1 [Phenformin] (partner 250 µM)
# Method in brief: as §1
# BAY61-3606 + Vorinostat = compound: COC1=C(C=C(C=C1)C2=CC3=NC=CN3C(=N2)NC4=C(C=CC=N4)C(=O)N)OC [BAY61-3606] + O=C(CCCCCCC(=O)Nc1ccccc1)NO [Vorinostat] (partner 1 µM)
# Method in brief: as §1
# Doxorubicin + Vorinostat = compound: COc1cccc2c1C(=O)c1c(O)c3c(c(O)c1C2=O)C[C@@](O)(C(=O)CO)C[C@@H]3O[C@H]1C[C@H](N)[C@H](O)[C@H](C)O1 [Doxorubicin] + O=C(CCCCCCC(=O)Nc1ccccc1)NO [Vorinostat] (partner 1 µM)
# Method in brief: as §1
Cell Line,relative viability (Doxorubicin + Lapatinib; first compound 0.001 µM),relative viability (Doxorubicin + Lapatinib; first compound 0.003162 µM),relative viability (Doxorubicin + Lapatinib; first compound 0.01 µM),relative viability (Doxorubicin + Lapatinib; first compound 0.03162 µM),relative viability (Doxorubicin + Lapatinib; first compound 0.1 µM),relative viability (BAY61-3606 + Phenformin; first compound 0.02 µM),relative viability (BAY61-3606 + Phenformin; first compound 0.06325 µM),relative viability (BAY61-3606 + Phenformin; first compound 0.2 µM),relative viability (BAY61-3606 + Phenformin; first compound 0.6325 µM),relative viability (BAY61-3606 + Phenformin; first compound 2 µM),relative viability (BAY61-3606 + Vorinostat; first compound 0.02 µM),relative viability (BAY61-3606 + Vorinostat; first compound 0.06325 µM),relative viability (BAY61-3606 + Vorinostat; first compound 0.2 µM),relative viability (BAY61-3606 + Vorinostat; first compound 0.6325 µM),relative viability (BAY61-3606 + Vorinostat; first compound 2 µM),relative viability (Doxorubicin + Vorinostat; first compound 0.001 µM),relative viability (Doxorubicin + Vorinostat; first compound 0.003162 µM),relative viability (Doxorubicin + Vorinostat; first compound 0.01 µM),relative viability (Doxorubicin + Vorinostat; first compound 0.03162 µM),relative viability (Doxorubicin + Vorinostat; first compound 0.1 µM)
HARA,0.599,0.591,0.893,0.62,0.659,0.433,0.35,0.432,0.494,0.369,0.547,0.47,0.415,0.462,0.466,0.593,0.482,0.547,0.589,0.432
SW 1573,0.978,1.21,1.15,0.75,0.559,0.288,0.336,0.342,0.328,0.166,0.817,0.643,0.578,0.815,0.344,0.725,0.481,0.233,0.109,0.104
NCI-H1792,0.942,0.911,0.874,0.865,0.89,0.37,,0.336,0.544,0.333,,,,,,,,,,
HCC-827,0.322,0.322,0.182,0.201,0.22,0.392,0.435,0.389,0.358,0.347,0.858,0.828,1.04,0.85,0.941,0.559,0.854,0.856,0.774,0.641
LC-2-ad,0.838,0.958,0.935,0.697,0.255,0.613,0.539,0.592,0.6,0.563,0.821,0.743,0.588,0.707,0.721,0.699,0.714,0.624,0.637,0.664
NCI-H520,0.881,0.965,0.753,0.48,0.248,0.552,0.446,0.659,0.67,0.51,0.768,0.861,0.624,0.71,0.638,0.757,0.733,0.788,0.596,0.564
NCI-H460,0.86,0.592,0.247,0.0187,0.0161,0.549,0.48,0.494,0.493,0.106,0.786,0.862,0.709,0.65,0.447,0.654,0.639,0.492,0.063,0.0329
SK-LU-1,0.822,1.09,0.669,0.523,0.55,0.563,0.451,0.569,0.506,0.284,0.695,0.83,0.755,0.679,0.504,0.719,0.87,0.674,0.494,0.461
